Assay results taken from patent US20030018025A1, “Certain 4-aminomethyl-2-substituted imidazole derivatives and 2-aminomethyl-4-substituted imidazole derivatives: new classes of dopamine receptor subtype specific ligands” (Neurogen Corporation, Corporation of the State of Delaware, priority 1995, published 2003).
Where a name gives a salt, the structure may show the parent alone.

melting point [°C] | Structure (SMILES)
169 to 171 | CC(c1cnc(-c2ccccc2)[nH]1)N1CCC(Cc2ccccc2)CC1 (stereo not drawn) (as salt: hydrochloride) [Compound 91, 2-phenyl-4(5)-[1-((4-benzyl-piperidin-1-yl)-ethan-1-yl)]imidazole dihydrochloride salt]
238 to 240 | c1ccc(-c2ncc(CN3CCC(c4ccccc4)CC3)[nH]2)cc1 (as salt: hydrochloride) [Compound 26, 2-Phenyl-4(5)-[(4-phenyl-piperidin-1-yl)-methyl]-imidazole dihydrochloride]
64 to 68 | Fc1ccc(N2CCN(Cc3cnc(-c4ccccc4)[nH]3)CC2)cc1 (as salt: hydrochloride) [Compound 56, 2-Phenyl-4(5)-[(4-(4-fluorophenyl)-piperazin-1-yl-)methyl]imidazole dihydrochloride]
81 to 83 | c1ccc(CC2CCN(Cc3cnc(-c4cccc5ccccc45)[nH]3)CC2)cc1 [Compound 92, 2-(1-naphthyl)-4(5)-[(4-benzyl-piperidin-1-yl)-methyl]imidazole]
114 to 117 | COc1cccc(-c2ncc(CN3CCC(c4ccccc4)CC3)[nH]2)c1 (as salt: hydrochloride) [Compound 50, 2-(3-Methoxyphenyl)-4(5)[(4-phenyl-piperidin-1-yl)-methyl]-imidazole dihydrochloride]
142 to 145 | Cc1ccc(Cl)cc1N1CCN(Cc2cnc(-c3ccccc3)[nH]2)CC1 (as salt: hydrochloride) [Compound 60, 2-Phenyl-4(5)-[(4(5-chloro-2-methylphenyl)-piperazin-1yl-)-methyl]imidazole dihydrochloride]

The next lines start with the compound.

Structure (SMILES) | melting point [°C]
COc1ccc(Br)cc1-c1ncc(CN(C)C)[nH]1 (as salt: hydrochloride) [Compound 1, 2-(5-bromo-2-methoxyphenyl)-4(5)-[(N,N-dimethyl)aminomethyl]-imidazole dihydrochloride] | 242 to 243
c1ccc(-c2ncc(CCCN3CCN(c4ncccn4)CC3)[nH]2)cc1 [Compound 125, 2-phenyl-4(5)-[(4-(2-pyrimidinyl)-piperazin-1-yl)-propan-1-yl]-imidazole] | 133 to 135
O=C(c1ccccc1)c1ncc(CN2CCN(c3ncccn3)CC2)[nH]1 [Compound 116, 2-(benzoyl)-4(5)-[(4-(2-pyrimidinyl)-piperazin-1-yl)-methyl]-imidazole] | 177 to 179
O=C(CCc1cnc(-c2ccccc2)[nH]1)N1CCN(c2ncccn2)CC1 [Compound 122, 2-phenyl-4(5)-[(4-(2-pyrimidinyl)-piperazin-1-yl)-propan-1-oyl]-imidazole] | 143 to 148
COc1ccccc1N1CCN(Cc2cnc(-c3ccc(F)cc3)[nH]2)CC1 [Compound 20, 2-(4-Fluorophenyl)-4(5)-[(4-(2-methoxyphenyl)-piperazin-1-yl)-methyl]-imidazole] | 95 to 97
COc1ccccc1N1CCN(Cc2cnc(-c3cccc(OC)c3OC)[nH]2)CC1 (as salt: hydrochloride) [Compound 21, 2-(2,3-Dimethoxyphenyl)-4(5)-[(4-(2-methoxyphenyl)-piperazin-1-yl)-methyl]-imidazole dihydrochloride] | 217 to 218
CCc1ccc(OC)c(-c2ncc(CN3CCN(c4ccccc4OC)CC3)[nH]2)c1 (as salt: hydrochloride) [Compound 55, 2-(5-Ethyl-2-methoxyphenyl-4(5)-[(4-(2-methoxyphenyl)-piperazin-1-yl)-methyl]-imidazoledihydrochloride] | 61 to 64
c1ccc(-c2ncc(CCN3CCN(c4ncccn4)CC3)[nH]2)cc1 [Compound 143, 2-phenyl-4(5)-[(4-(2-pyrimidinyl)-piperazin-1-yl)-ethan-1-yl]-imidazole] | 142 to 144
c1ccc(-c2nc(-c3ccccc3)c(CN3CCN(c4ncccn4)CC3)[nH]2)cc1 [Compound 132, 2,5-diphenyl-4(5)-[(4-(2-pyrimidinyl)piperazin-1-yl)methyl]-imidazole] | 221 to 225
